Blank lines part the entries; values can stand above or below the molecule they belong to. Positions of bridges follow the written chain, without caps; N, C: chain ends. Residues, ends and D or L forms follow the SMILES beside them.
Columns and labels:
[1] = format: in vitro ADME, Drosophila melanogaster
Method: Liquid Chromatography—Mass Spectrometery (LC-MS/MS). Hemolymph was prepared as described in section 2.3, except that 50 D. melanogaster female-equivalents of unmated or mated female flies were used for 30 min incubations with 20 μg of T-SP. Reactions were terminated and processed as detailed in section 2.5. The supernatants of the methanol precipitations were lyophilized and resuspended by sonication in 100 μl of loading buffer (5% acetonitrile, 0.1% formic acid) and analyzed by LC-MS/MS. Briefly, the peptide mixtures were run in an Agilent 1100 series micro-flow HPLC system (Agilent Technologies, Inc., Palo Alto, Calif.) coupled to an Esquire-HCT ion trap mass spectrometer through the online nano-ESI ion source (Broker Daltonik GmbH, Bremen). Peptides were separated on a Protein-15-C18-150 microbore column (Micro-Tech Scientific, Cousteau, Court Vista, Calif.) using a 5% to 30% gradient of acetonitrile in 0.1% formic acid for 37 min at […], at a flow rate of 1 μl/min. MS and MS2 spectra were acquired in a data-driven way with parameters optimized for peptide mixture analysis. The resulting MS/MS chromatograms were processed by the DataAnalysis 3.1 application and further analysed with BioTools 2.2 (Broker Daltonik GmbH, Bremen) and MASCOT (Matrix Science), assuming the unknown specificity of the hemolymph protease. A 95% confidence interval was set as threshold. […]

[2] = tested on: D. melanogaster females; assay: Receptivity assay, ectopic expression in unmated females by heat-inducible GAL4 driver (hsp70-GAL4); format: in vivo, Drosophila melanogaster; conditions: for duration of rejection behavior (kicking and extruding ovipositor): days examined
Method: Heat shock. Transgenic unmated females carrying the mutated T-SP (hsp70-GAL4; UAS-T-SPX) were placed in empty vials supplemented with moisture filter paper. Files were placed in water bath and heated gradually from 25 to 37° C. Flies were kept at this temperature for 1 hr thereafter returned to room temperature for one hour for recovery. Recovered heat-shocked flies were placed in food vials and kept at 25° C. until used.
(§1) Receptivity assay. Single unmated females of each homogenous UAS-T-SP transgene (see also Table 2) were placed in a food vial with single unmated 3-5-day-old males of the same UAS-T-SP transgene. Two parameters were monitored for one hour: (i) Receptivity rate—the number of female that mated; (ii) courtship behavior—whether or not female performed a rejection behaviors (kicking and extruding their ovipositor). […] For that a group of 10 females were isolated from each group and their behavior was inspected. […] These females will be exposed in the next day to newly unmated 3-5-day-old males (see section developing bioassay for additional details).
To examine the effect of the modified T-SP on female receptivity we first developed a sensitive bioassay that provided optimal conditions to test the transgenes. […] We examined two independent lines to determine the effect of exposure to one or two males and whether a window of one hour would be sensitive enough to detect changes in female behavior. Four-day-old unmated females were placed with one or two males in a fresh food vial and their behavior was documented. Mated females were separated from males and left in the food vials. Twenty four hours later the females were re-exposed to unmated 3-day-old males and inspected for mating encounter and courting behavior for 1 hour. […] About 50% of the females re-mated after 4 to 5 days (FIGS. 7A-B).
Since a change in the willingness of the female to mate is expressed in their behavior, we next developed a qualitative behavioral bioassay. Mated females reject the courting males by extruding their ovipositor toward the male and/or by kicking the courting male. Theses behaviors are not seen in unmated females. We set up a system in which we inspected whether or not the female kicks the male and extrudes her ovipositor toward the male (see material and methods), both of which are predictors of female receptivity status.

[3] = tested on: D. melanogaster females; assay: Receptivity assay, peptide expressed in male accessory glands and transferred to the female during mating; format: in vivo, Drosophila melanogaster; conditions: transgene received from male seminal fluid, FIG. 14
Description: Transgenic flies. The GAL4-UAS system, first described by Brand and Perrimon (1993), was used for transgenesis of D. melanogaster. Briefly, T-SP was cloned into the pUAST vector, which bears an upstream activating sequence (UAS) site able to bind to the yeast transcription factor GAL4. Two separate fly lines are reared, the one (UAS) bearing the gene(s) to be transcribed and a chosen promoter (target line), the second being the GAL4 activating line. By select and controlled crossing of these two parent lines, the transgene, in this case T-SP or its amino-acid substituted homolog, is activated and expressed in the filial generation, at different times during development, and/or in select tissues, dependent on the promoter and inducer utilized. In this case, the GAL4 gene is under the control of the accessory gland specific promoter 26Aa that is induced only in the accessory glands (Park et al., 1994).
RT-PCR. Expression was induced by a heat-inducible GAL4 driver (hsp70-GAL4), or with the Acp26Aa GAL4 driver (Acp26Aa-GAL4) which, restricts expression to the male accessory glands exclusively. To verify the expression of T-SP, groups of 10 heat-shocked females were taken at different time post-heat-shock, placed in Eppendorf tubes, quick-frozen in liquid nitrogen and kept at −80° C. until subject to RNA extraction. mRNA extraction was performed with Dynabeads (Invitrogen) according to the manufacturer's instructions.
as §1, with “details). […]” for “details).”

[4] = tested on: trypsin activity of mated female hemolymph; assay: Trypsin inhibition assay: cleavage of N-Bnz-R-pna by mated female hemolymph; format: biochemical, Drosophila melanogaster; conditions: 20 min pre-incubation, with DTT
Method: Hemolymph sample preparation. Hemolymph from batches of 250 unmated or mated females was extracted 4 days after eclosion as in Lung and Wolfner (1999). Briefly, groups of 5 flies, punctured in the prothorax, were placed head down in chilled Eppendorf tubes (0.5 ml tube pierced in the bottom and inserted into intact 1.5 ml tubes) and centrifuged at 4° C. Tubes were inspected for presence of fat body. Ten μl of 100 mM Tris buffer, pH 8.0, was added to the first tube, and then the collected hemolymph plus Tris from tube 1 was transferred from this tube to the next tube and so on, in to pool hemolymph extracted from unmated or mated female flies.
Protease and inhibition assays. Protease activity in D. melanogaster female hemolymph was assayed using chromogenic substrates. […]
Commercial enzymes (response controls of the specific reaction mixture) were dissolved in 100 mM Tris buffer, pH 8.0, at a concentration of 5 μg/μl. […] Activity was recorded as increase in absorbance, due to the release of 4-nitroaniline, as measured using an ELISA reader with 405 nm filter in an ELISA Plate Reader (ELx800, Bio-Tek Instruments). Values are relative absorbance readings, obtained with equal fly-equivalents of hemolymph as source of protease. […] Hemolymph protein content was measured spectroscopically at 280 nm, and was 0.5-1 μg per female. […]

[5] = tested on: CA of young unmated female C. capitata; assay: In-vitro synthesis of JHB3 by the corpus allatum; set-up: species or system Ceratitis capitata; conditions: DrmSP with its N-terminal motif
[6] = mated female hemolymph (50 D. melanogaster female-equivalents); conditions: 37° C., up to 40 min
[7] = hemolymph extracted from 4-days old mated females, in 100 mM Tris buffer, pH 8.0; conditions: D. melanogaster, 37° C., up to 60 min
[8] = tested on: Elastase; assay: Elastase from porcine pancreas in 100 mM Tris buffer, pH 8.0; conditions: 37° C., up to 60 min
[9] = hsp70-GAL4 driver, FIG. 10, wild-type threshold 4-5 days
[10] = other independent lines, FIG. 11, n=20

number of different fragments yielded [1]: 11 | number of fragments obtained [1]: five
Molecule: CC[C@H](C)[C@H](NC(=O)[C@@H]1CCCN1C(=O)[C@H](Cc1ccccc1)NC(=O)[C@H](CCCCN)NC(=O)[C@@H](NC(=O)[C@@H]1CCCN1C(=O)[C@@H](N)CCCCN)[C@@H](C)O)C(=O)N1CCC[C@H]1C(=O)N[C@@H](CO)C(=O)N1CCC[C@H]1C(=O)N[C@@H](CC(N)=O)C(=O)N1CCC[C@H]1C(=O)N[C@@H](CCCNC(=N)N)C(=O)N[C@@H](CC(=O)O)C(=O)N[C@@H](CCCCN)C(=O)N[C@@H](Cc1c[nH]c2ccccc12)C(=O)N[C@H]1CSSC[C@@H](C(=O)O)NC(=O)[C@H](CCCNC(=N)N)NC(=O)CNC(=O)CNC(=O)[C@H](Cc2c[nH]c3ccccc23)NC(=O)[C@H](C)NC(=O)[C@@H]2CCCN2C(=O)CNC(=O)[C@H](CC(C)C)NC(=O)[C@H](CC(N)=O)NC(=O)[C@H](CC(C)C)NC(=O)[C@H](CCCNC(=N)N)NC1=O [T-SP] (H-KPTKFPIPSPNPRDKWCRLNLGPAWGGRC-OH; disulfide 17-29; N-terminus and C-terminus assumed)
duration of induced female non-receptivity [2, 9]: 8 days | duration of rejection behavior (kicking and extruding ovipositor) ([2]; hsp70-GAL4 driver): 8 days | duration of induced female non-receptivity [2, 10]: 8 days | time at which females commenced re-mating after the first mating [3]: three

Molecule: Cc1ccc(S(=O)(=O)N[C@@H](CCCCN)C(=O)CCl)cc1.Cl [TLCK, Na-p-Tosyl-L-lysine chloromethyl ketone hydrochloride]
reduced cleavage of N-Bnz-R-pna ([4]; TLCK 1 mM final): 40%

Molecule: DrmSP: Drosophila melanogaster Sex Peptide; mature form a linear peptide of 36 amino acids with an S-S bridge
effect on in-vitro synthesis of JHB3 [5]: depresses

Molecule: KPTKFPIPSPNPRDKWCRLNLGPAWGGRC
cleaved bond [6]: R25-L26, major, 30 min

Molecule: N-Succinyl-Ala-Ala-Ala-pna
not cleaved [7]: elastase activity was not observed

Molecule: N-Succinyl-Ala-Ala-Pro-Ile-pna
cleaved bond [7]: I-pna

Molecule: N-Succinyl-Ala-Ala-Pro-Leu-pna
cleaved bond [7]: L-pna

cleaved bond [8]: V-pna
Molecule: N-Succinyl-Ala-Ala-Val-pna
cleaved bond [7]: V-pna

Molecule: T-SPQ: T-SP with arginine at position 25 substituted with glutamine, KPTKFPIPSPNPRDKWCQLNLGPAWGGRC (SEQ ID NO: 12); expressed transgenically
duration of induced female non-receptivity [2, 9]: 8 days | duration of rejection behavior (kicking and extruding ovipositor) ([2]; hsp70-GAL4 driver): 8 days | duration of induced female non-receptivity [2, 10]: 8 days | percentage of re-mating compared with T-SP [3]: lower percentages | time at which females commenced re-mating after the first mating [3]: 5 days

Molecule: Z-Gly-Gly-Leu-p-Nitroanilide
not cleaved [7]: Neither chymotrypsin nor subtilisin activity were evident

B1: Bowman-Birk inhibitor (protein)
chain: DDESSKPCCDQCACTKSNPPQCRCSDMRLNSCHSACKSCICALSYPAQCFCVDITDFCYEPCKPSEDDKEN
reduced cleavage of N-Bnz-R-pna ([4]; BBI 5 μM final): 78%

— patent US8677934B2 (Yissum Research Development Company of the Hebrew …, priority 2007, dated 2014)
